The subject of data set [1] is esophageal squamous stem cells (ESO stem cells, Krt5+). The experiment in a line: High throughput chemical screening and dose response on GFP-labeled stem cells. The class given is cell-based, human. The settings on record: for effect on Esophageal stem cells: in the presence of 1 μM Ponatinib.
In data set [2] the test system is Barrett's stem cells (BE stem cells, Krt7+). The description is as above. The conditions noted are these: for lethality towards Barrett's stem cells: screened in the background of 1 μM Ponatinib. It is filed as cell-based, human.
The target in data set [3] is human GSK3α (Homo sapiens, UniProt P49840). The conditions noted are these: cited from earlier work.
In data set [4] the test system is chymotrypsin-like activity of the proteasome. The settings on record: cellular; cited from earlier work.
Data set [5] has as its system Barrett's stem cells (GFP) and esophageal squamous stem cells (RFP). The experiment in a line: 3D air-liquid interface (ALI) co-culture of Barrett's and esophageal stem cells. The class given is cell-based, human. The conditions noted are these: in the presence of Ponatinib. As to the method:
A 3D culture model was generated to mimic Barrett's Esophagus in vitro. The esophageal squamous stem cells and Barrett's stem cells were co-cultured in the transwell insert. Following the creation of air-liquid interface, it was observed that the BE islands located among well-differentiated squamous epithelium that well recapitulated the histology of human BE in the patient. Given the similarity of this artificial model and human pathology, the hits were tested in this system to further validate them. […] The esophageal squamous stem cells were labeled with red fluorescent protein (RFP) while Barrett's stem cells were labeled with green fluorescent protein (GFP). Without the treatment, it was observed that a mixture of GFP and RFP labeled cells in culture.

Data set [6] deals with tryptic and peptidylglutamyl activities of the proteosome. The conditions noted are these: cited from earlier work.
Data set [7] concerns Barrett's stem cells and Esophageal stem cells. The experiment in a line: Co-culture of Barrett's stem cell lines and Esophageal stem cells. It is filed as cell-based, human. The settings on record: in the presence of Ponatinib.
Data set [8] concerns dysplasia and cancer stem cells. Description: Mice xenografted with dysplasia and cancer stem cells. It is filed as in vivo. The conditions noted are these: with Ponatinib. The text has this:
FIG. 5C. Schematic of in vivo validation of drug combinations in mice xenografted with dysplasia and cancer stem cells. Following the treatment, the xenografts were processed for histological analysis or clonogenic assays to detect the existence of stem cells.

Data set [9] concerns Barrett's, dysplasia or EAC stem cells. The experiment in a line: Co-culture of esophageal stem cells with Barrett's, dysplasia or EAC stem cells. It is filed as cell-based, human. The conditions noted are these: together with 1 μM Ponatinib. The protocol: FIG. 6. Patient-matched BE, dysplasia and cancer stem cells (Krt7+, Green) were mixed with Krt5+ (red) ESO cells and co-cultured for five days and then treated with seven selected drugs together with 1 μM Ponatinib.
BE has been known to be the precursor of the dysplastic and cancerous lesions of EAC. […] Moreover, PCA analysis of Barrett's stem cells derived from 12 patients together with dysplasia, cancer and Esophageal squamous stem cells confirmed that the stem cells of dysplasia and cancer shared very similar gene expression with Barrett's stem cells (FIGS. 4A & B). […] The effects of the eight drug hits in combination with Ponatinib were tested in the cell culture of co-seeding esophageal stem cells and Barrett's, dysplasia or EAC stem cells. […] Given these three entities always co-exist in patients with EAC, our strategies of eradicating all of them could help to eliminate the chance of recurrence of EAC patients drastically.

The subject of data set [10] is Barrett's stem cells and esophageal squamous stem cells xenograft. The experiment in a line: Mouse xenograft of co-injected esophageal squamous and GFP labeled Barrett's stem cells. The class given is in vivo, mice. The source says: The effect of these chemicals on BE in a xenograft model was further examined. The esophageal squamous stem cells and GFP labeled Barrett's stem cells were mixed and co-injected into the immunodeficient mice. […] Two weeks following the treatment, the xenografts were collected and examined through histology analysis and clonogenic analysis.

Data set [11] has as its system BE, dysplasia and cancer stem cells. The experiment in a line: 3D (ALI) culture of patient-matched BE, dysplasia and cancer stem cells. It is filed as cell-based, human. The conditions noted are these: combined with Ponatinib. The text has this:
FIG. 5B. Left, Scanned images of top view of BE, dysplasia and cancer stem cells (green) generated ALI structures in the presence of absence of drug combinations.

Data set [12] deals with chymotrypsin-like activity of proteasome. The conditions noted are these: cited from earlier work.
The test system of data set [13] is 3T3-J2 feeder cells. Description: Lethality of feeder cells during treatment. The class given is cell-based. The settings on record: combination with Ponatinib. The protocol:
It was next hypothesized that one chemical in our libraries could function with Ponatinib in a synergistic manner to specifically eradicate Barrett's stem cells while protecting and promoting esophageal stem cells. The same libraries were screened in the background of 1 μM Ponatinib. […] Among them, Adefovir Dipivoxil is a FDA approved drug, CEP-18770 and Qizartinib are in clinical trials. […] Their differential effects on Barrett's stem cells and Esophageal stem cells were validated in a dosage dependent manner (FIG. 2C; FIG. 3F).
The GFP-tagged cell lines will be seeded on multiple 384 well plates (Griener Bio-One, USA) (varying according to number of compounds in a library) with a feeder layer of irradiated 3T3-J2 fibroblast cells. The stem cell will be allowed to grow until they divide to become 4-5 cells within a colony. Afterwards they will be transported for treatment with selected chemical library (1 μM) to High Throughput Research and Screening Center at Institute of Biosciences and Technology (Houston, Tex.), Texas A&M University. Positive and negative control lanes will be allocated within each plate. […] The cells will be allowed to grow for 6 days at 37° C., 7.5% CO2 incubator after treatment. After the cells in the control lanes are at good confluency, the cells will be prepared for imaging. […]

In data set [14] the target is T1, STAT1 (Homo sapiens, UniProt P42224).
T1 sequence (P42224 1-750): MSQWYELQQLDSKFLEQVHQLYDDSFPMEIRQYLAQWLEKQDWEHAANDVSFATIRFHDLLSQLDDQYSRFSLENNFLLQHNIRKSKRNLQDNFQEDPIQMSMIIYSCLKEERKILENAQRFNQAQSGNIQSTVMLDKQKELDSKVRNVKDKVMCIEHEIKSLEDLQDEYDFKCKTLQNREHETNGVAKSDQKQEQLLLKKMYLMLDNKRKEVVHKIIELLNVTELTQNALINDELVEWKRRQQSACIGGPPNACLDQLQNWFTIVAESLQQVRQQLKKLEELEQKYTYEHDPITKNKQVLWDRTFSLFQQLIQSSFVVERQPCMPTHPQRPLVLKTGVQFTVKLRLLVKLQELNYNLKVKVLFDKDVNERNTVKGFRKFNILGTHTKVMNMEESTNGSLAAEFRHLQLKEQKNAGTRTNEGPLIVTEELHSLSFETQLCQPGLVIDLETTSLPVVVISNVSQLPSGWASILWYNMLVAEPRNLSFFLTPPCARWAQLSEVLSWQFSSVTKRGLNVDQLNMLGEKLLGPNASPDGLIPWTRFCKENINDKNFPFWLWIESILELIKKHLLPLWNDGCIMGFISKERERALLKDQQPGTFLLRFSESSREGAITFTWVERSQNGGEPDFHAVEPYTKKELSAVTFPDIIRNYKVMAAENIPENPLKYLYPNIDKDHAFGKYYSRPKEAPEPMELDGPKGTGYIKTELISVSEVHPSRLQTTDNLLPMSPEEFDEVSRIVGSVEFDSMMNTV
The conditions noted are these: cited from earlier work.

The target of data set [15] is ERBB2 phosphorylation (T798I) (Homo sapiens, UniProt P04626, T798I). The settings on record: cited from earlier work.
In data set [16] the test system is taxol-resistant ovarian stem cells. Description: Taxol-resistant ovarian stem cell xenograft animal models. It is filed as in vivo. The settings on record: combination with ponatinib.
The test system is the same in data set [17]. The experiment in a line: Killing of taxol-resistant ovarian stem cells in vitro. It is filed as cell-based. The conditions noted are these: combination with ponatinib.

Each structure is given as a SMILES string. Entries after “also recorded” stand apart in the source; their conditions may differ.

human GSK3α, sequence (P49840 whole entry): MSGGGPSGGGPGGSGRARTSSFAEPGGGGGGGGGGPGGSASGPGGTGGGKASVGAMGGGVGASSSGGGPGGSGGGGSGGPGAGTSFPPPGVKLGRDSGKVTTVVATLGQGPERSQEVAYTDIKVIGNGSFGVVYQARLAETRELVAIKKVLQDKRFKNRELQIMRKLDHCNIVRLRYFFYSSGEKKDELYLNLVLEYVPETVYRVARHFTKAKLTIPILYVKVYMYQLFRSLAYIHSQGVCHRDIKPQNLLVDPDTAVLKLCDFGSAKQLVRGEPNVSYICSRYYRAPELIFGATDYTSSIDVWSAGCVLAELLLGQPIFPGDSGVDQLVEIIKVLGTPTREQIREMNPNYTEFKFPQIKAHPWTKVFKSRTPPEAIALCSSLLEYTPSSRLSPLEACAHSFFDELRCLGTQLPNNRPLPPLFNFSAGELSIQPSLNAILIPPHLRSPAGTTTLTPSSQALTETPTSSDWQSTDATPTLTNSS
ERBB2 phosphorylation (T798I), sequence (P04626 23-1255 T798I): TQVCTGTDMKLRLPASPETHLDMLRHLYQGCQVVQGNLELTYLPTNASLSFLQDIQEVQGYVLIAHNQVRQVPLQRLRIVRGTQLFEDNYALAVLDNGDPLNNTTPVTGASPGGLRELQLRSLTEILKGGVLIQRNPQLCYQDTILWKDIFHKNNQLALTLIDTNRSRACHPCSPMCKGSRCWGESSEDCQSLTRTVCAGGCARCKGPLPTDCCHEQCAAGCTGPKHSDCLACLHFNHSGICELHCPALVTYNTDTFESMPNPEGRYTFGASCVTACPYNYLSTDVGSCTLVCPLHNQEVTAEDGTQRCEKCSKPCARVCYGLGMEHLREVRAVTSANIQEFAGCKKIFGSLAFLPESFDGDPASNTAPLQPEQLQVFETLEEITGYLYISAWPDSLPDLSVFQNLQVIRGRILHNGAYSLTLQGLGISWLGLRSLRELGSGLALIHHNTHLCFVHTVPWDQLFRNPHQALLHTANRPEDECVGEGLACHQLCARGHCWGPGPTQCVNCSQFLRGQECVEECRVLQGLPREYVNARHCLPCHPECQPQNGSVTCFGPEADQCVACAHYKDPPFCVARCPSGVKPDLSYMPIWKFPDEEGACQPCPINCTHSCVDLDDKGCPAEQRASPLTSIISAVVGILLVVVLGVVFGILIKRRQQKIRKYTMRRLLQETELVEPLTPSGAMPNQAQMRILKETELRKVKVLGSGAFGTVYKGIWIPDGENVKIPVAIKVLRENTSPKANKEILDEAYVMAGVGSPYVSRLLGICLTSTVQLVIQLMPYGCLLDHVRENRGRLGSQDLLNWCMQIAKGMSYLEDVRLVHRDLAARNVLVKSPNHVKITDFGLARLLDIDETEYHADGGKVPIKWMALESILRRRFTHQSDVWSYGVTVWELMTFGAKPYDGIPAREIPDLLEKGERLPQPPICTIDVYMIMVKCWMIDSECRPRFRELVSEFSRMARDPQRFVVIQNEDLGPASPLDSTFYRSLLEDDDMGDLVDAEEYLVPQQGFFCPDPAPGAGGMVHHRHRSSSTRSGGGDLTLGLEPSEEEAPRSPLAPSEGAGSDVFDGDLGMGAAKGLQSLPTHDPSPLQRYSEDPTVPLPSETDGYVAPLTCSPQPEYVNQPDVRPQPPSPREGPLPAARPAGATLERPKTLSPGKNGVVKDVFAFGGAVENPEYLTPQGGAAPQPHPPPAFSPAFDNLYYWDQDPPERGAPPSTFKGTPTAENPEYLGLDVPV

As for `N#Cc1ccc2[nH]c(O)c(-c3ccc(CN4CCOCC4)cn3)c2c1` [AZD1080], in data set [1], the “effect on Esophageal stem cells” value is given as “without affecting”. Also, in data set [2], the “lethality towards Barrett's stem cells” value is reported as “displayed the lethality”. The “differential effects on BE and ESO stem cells, validation over a range of dosages” value in data set [2] (together with 1 μM Ponatinib) is listed as “appeared to be the false positive hit in the screening”. Also, the Ki in data set [3] is 6.9 nM.

In the case of `CC(C)(C)C(=O)OCOP(=O)(COCCn1cnc2c(N)ncnc21)OCOC(=O)C(C)(C)C` [Adefovir Dipivoxil], the “effect on Esophageal stem cells” value in data set [1] is “without affecting”. Besides, the “lethality towards Barrett's stem cells” value in data set [2] is recorded as “displayed the lethality”.

With `CC(C)C[C@H](NC(=O)[C@@H](NC(=O)c1cccc(-c2ccccc2)n1)[C@@H](C)O)B(O)O` [CEP-18770, [(1R)-1-[[(2S,3R)-3-hydroxy-2-[(6-phenylpyridine-2-carbonyl)amino]butanoyl]amino]-3-methylbutyl]boronic acid], in data set [1], the “effect on Esophageal stem cells” value is “without affecting”. Also, in [4], the IC50 is 3.8 nM. Also, the “cross sections of the ALI structures” value in data set [5] is “intact esophageal squamous epithelium without any existence of Barrett's epithelium”. For the same compound, the “GFP labeled Barrett's stem cells in 3D ALI co-culture” value in [5] (eight Barrett's stem cell lines) is given as “disappearance”. The “differential of dose-response curves, BE stem cells versus normal esophageal stem cells” value in [2] (in the background of a fixed concentration of Ponatinib) is recorded as ~1,000 fold. Moreover, the “lethality towards Barrett's stem cells” value in data set [2] is given as “displayed the lethality”. Further, the “inhibition of the tryptic and peptidylglutamyl activities of the proteosome” value in data set [6] is given as “only marginal inhibition”. In [7], the “effect on Esophageal squamous stem cells in co-culture” value is recorded as “promoting”. In addition, the “lethality to Barrett's stem cells in co-culture” value in data set [7] (nine Barrett's stem cell lines) was “uniform lethality to all Barrett's stem cells”. In [8], the “Dysplastic structures (Krt7+/Ki67+) in xenografts” value was “diminished”; the “eradication of precancerous, dysplastic and cancerous stem cells in mouse xenograft models” value is reported as “eradicate”; the “stem cells cloned from treated dysplastic structures (rhodamine staining)” value is given as “not cloned”. Also, the “growth of BE, dysplasia and cancer stem cells in co-culture with ESO cells” value in data set [9] is on record as “most effective”. Moreover, in data set [10] (NSG mice, with Ponatinib), the “BE stem cells in treated structures (histological analysis)” value was “not detected” and the “Krt5+ ESO structures in treated samples” value is given as “visibly more robust”. Besides, the “clonogenic Barrett's stem cells from xenografts” value in [10] (combination with Ponatinib, clonogenic analysis) is “lack of clonogenic Barrett's stem cells”. In addition, the “Barrett's structures in xenografts (histology)” value in data set [10] (combination with Ponatinib, intraperitoneally, two weeks following the treatment) is “total loss”. In data set [11], the “eradication of BE, dysplasia and cancer stem cells in 3D (ALI) culture” value is listed as “eradicate”. For the same compound, the IC50 in [12] is 3.8 nM.

For the compound `CO[C@H]1CC[C@@H](O[C@H]2C[C@H]([C@]3(C)CC[C@]4(C[C@H](O)[C@@H](C)[C@@H]([C@@H](C)/C=C(\C)C(=O)[C@H](C)C[C@H](C)C(=O)O)O4)O3)O[C@]3(O[C@@H]([C@H]4O[C@@](O)(CO)[C@H](C)C[C@@H]4C)C[C@@H]3C)[C@@H]2C)O[C@H]1C` [Nanchangmycin], the “effect on Esophageal stem cells” value in [1] was “without affecting”. Besides, the “lethality towards Barrett's stem cells” value in data set [2] is given as “displayed the lethality”. Besides, the “lethality of 3T3-J2 feeder cells during the treatment” value in [13] is “high lethality”.

In the case of `Cc1ccc(C(=O)Nc2ccc(CN3CCN(C)CC3)c(C(F)(F)F)c2)cc1C#Cc1cnc2cccnn12` [Ponatinib], the “proliferation of esophageal stem cells” value in [1] (single agent screening) was “promoted the proliferation; also recorded: significantly increase the proliferation”. For the same compound, in [2] (single agent screening), the “survival of Barrett's stem cells” value is “slightly decreasing the survival”.

As for `CC(C)(C)c1cc(NC(=O)Nc2ccc(-c3cn4c(n3)sc3cc(OCCN5CCOCC5)ccc34)cc2)no1` [Quizartinib], the “effect on Esophageal stem cells” value in data set [1] is on record as “without affecting”. Also, the “lethality towards Barrett's stem cells” value in [2] is on record as “displayed the lethality”.

In the case of `O=[N+]([O-])c1ccc2c(c1)S(=O)(=O)C=C2` [Stattic], in [1], the “effect on Esophageal stem cells” value is “without affecting”. For the same compound, in data set [2], the “lethality towards Barrett's stem cells” value was “displayed the lethality”. Moreover, the “selectivity over STAT1” value in data set [14] is “highly selectivity”.

As for `C=CC(=O)Nc1cccc(Sc2nc(Nc3ccc(N4CCN(C)CC4)cc3)ncc2Cl)c1` [WZ8040], the “inhibition of ERBB2 phosphorylation (T798I)” value in data set [15] is recorded as “does not inhibit”. Moreover, the “effect on Esophageal stem cells” value in [1] is reported as “without affecting”. For the same compound, in [2], the “lethality towards Barrett's stem cells” value is listed as “displayed the lethality”.

On to `CC(=O)O[C@H]1C(=O)[C@@]2(C)[C@H]([C@H](OC(=O)c3ccccc3)[C@]3(O)C[C@H](OC(=O)[C@H](O)[C@@H](NC(=O)c4ccccc4)c4ccccc4)C(C)=C1C3(C)C)[C@]1(OC(C)=O)CO[C@@H]1C[C@@H]2O` [taxol], for which the tumor volume result in data set [16] is given as “reducing tumor volume”. Moreover, the “killing taxol-resistant ovarian stem cells” value in [17] is given as “synergy”.

These data come from patent US20220202792A1, “METHODS AND COMPOSITIONS FOR TREATING CHRONIC INFLAMMATORY INJURY, METAPLASIA, DYSPLASIA AND CANCERS OF EPITHELIAL TISSUES” (University of Houston System, priority 2019, published 2022).
